Data on three compounds can be found in patent US9981968B2, “Substituted pyrrolo[2,3-d]pyrimidines for the treatment of cancer and proliferative disorders” (Northwestern University, priority 2013, dated 2018).

Holding throughout (type): cell-based
In one assay the test system is NCI/ADR-RES. The experiment in a line: SRB growth assay, NCI/ADR-RES. As to conditions: Homo sapiens, NCI/ADR-RES (Ovarian), 48 hours, read-out: Percent viability. From the text: (§1) Tested cell lines included, Leukemia: CCRF-CEM, HL-60(TB), MOLT-4, RPMI-8226 and SR; Non-Small Cell Lung: A549/ATCC, EKVX, HOP-62, HOP-92, NCI-H226, NCI-H23, NCI-H322M, NCI-H460 and NCI-H522; Colon: COLO 205, HCC-2998, HCT-116, HCT-15. HT29, KM12 and SW-620; CNS: SF-268, SF-295, SF-539, SNB-19, SNB-75 and U251; Melanoma: LOX IMVI, MALME-3M, M14, MDA-MB-435, SK-MEL-2, SK-MEL-28, SK-MEL-5, UACC-257 and UACC-62; Ovarian: IGR-OV1, OVCAR-3, OVCAR-4, OVCAR-5, OVCAR-8. NCI/ADR-RES and SK-OV-3; Renal: 786-0, A498, ACHN, CAKI-1, RXF 393, SN12C, TK-10 and UO-31; Prostate: DU-145 and PC-3; and Breast: MCF7, MDA-MB-231/ATCC, MDA-MB-468, HS 578T, BT-549 and T-47D.
(§2) The cells were cultured in RPMI1640 media supplemented with 10% Fetal Bovine Serum (FBS), 2 mM glutamine and with 5% CO2 and 37° C. For experiment, 5% of FBS and 50 ug/mL of gentamycin were used. Test articles were 10 μM of NUCL 381-3 or 10 μM NUCL 383-3. The positive control was 10 μM of doxorubicin.
(§3) Cells were plated in 96 well plates. The cells were plated in triplicate. Cells were plated at the densities based on NCI recommendation. Time zero cells (Tz) were fixed the following day with 50% or 80% ice cold Trichloracetic acid (TCA) and washed 5× with water. At 48 hours post addition of treatments, all remaining plates were fixed in 80% ice cold Trichloracetic acid (TCA) and washed 5× with water. After drying, one hundred microliters of 0.4% Sulphorhodamine B (SRB) in 1% acetic acid was added to each plate including the Tzero plate and incubated for 10 minutes at room temperature. After 5 additional washes with 1% acetic acid, plates were allowed to dry. One hundred microliters of Trizma base was added to each well and plates were read at 515 nm.
(§4) Percent of growth was calculated by the following formulas: [Ti/C]×100, where: Tz=absorbance readings for wells at time zero without treatment; C=absorbance readings of untreated cells (without treatment); and Ti=absorbance reading of wells with treatment.
In general terms: In SRB staining, fixed cells bind dye roughly in proportion to their protein.

Another assay deals with SK-MEL-28. The experiment in a line: SRB growth assay, SK-MEL-28. The following applies: Homo sapiens, SK-MEL-28 (Melanoma), 48 hours, read-out: Percent viability.
Source text: as §1, §2, §3, §4

In another assay the test system is UACC-62. As to the kind of experiment: SRB growth assay, UACC-62. The following applies: Homo sapiens, UACC-62 (Melanoma), 48 hours, read-out: Percent viability.
Source text: as §1, §2, §3, §4

The subject of the next assay is U251. As to the kind of experiment: SRB growth assay, U251. As to conditions: Homo sapiens, U-251, U251 (CNS), 48 hours, read-out: Percent viability.
Source text: as §1, §2, §3, §4

For the next assay, the system named is HCT-15. The experiment in a line: SRB growth assay, HCT-15. As to conditions: Homo sapiens, HCT-15 (Colon), 48 hours, read-out: Percent viability.
Source text: as §1, §2, §3, §4

The test system of another assay is SK-MEL-2. The experiment in a line: SRB growth assay, SK-MEL-2. The following applies: Homo sapiens, SK-MEL-2 (Melanoma), 48 hours, read-out: Percent viability.
Source text: as §1, §2, §3, §4

The next assay has as its system MDA-MB-468. As to the kind of experiment: SRB growth assay, MDA-MB-468. The following applies: Homo sapiens, MDA-MB-468 (Breast), 48 hours, read-out: Percent viability.
Source text: as §1, §2, §3, §4

Another assay relates to MALME-3M. As to the kind of experiment: SRB growth assay, MALME-3M. The following applies: Homo sapiens, MALME-3M (Melanoma), 48 hours, read-out: Percent viability.
Source text: as §1, §2, §3, §4

In a further assay the test system is SW-620. As to the kind of experiment: SRB growth assay, SW-620. As to conditions: Homo sapiens, SW-620 (Colon), 48 hours, read-out: Percent viability.
Source text: as §1, §2, §3, §4

The subject of another assay is SR. The experiment in a line: SRB growth assay, SR. The following applies: Homo sapiens, SR (Leukemia), 48 hours, read-out: Percent viability.
Source text: as §1, §2, §3, §4

A further assay has as its system SF-295. The experiment in a line: SRB growth assay, SF-295. The following applies: Homo sapiens, SF-295 (CNS), 48 hours, read-out: Percent viability.
Source text: as §1, §2, §3, §4

The test system of another assay is OVCAR-3. As to the kind of experiment: SRB growth assay, OVCAR-3. As to conditions: Homo sapiens, OVCAR-3 (Ovarian), 48 hours, read-out: Percent viability.
Source text: as §1, §2, §3, §4

In the next assay the test system is OVCAR-5. As to the kind of experiment: SRB growth assay, OVCAR-5. As to conditions: Homo sapiens, OVCAR-5 (Ovarian), 48 hours, read-out: Percent viability.
Source text: as §1, §2, §3, §4

Another assay deals with KM12. The experiment in a line: SRB growth assay, KM12. As to conditions: Homo sapiens, KM12 (Colon), 48 hours, read-out: Percent viability.
Source text: as §1, §2, §3, §4

In the next assay the test system is SNB-75. The experiment in a line: SRB growth assay, SNB-75. As to conditions: Homo sapiens, SNB-75 (CNS), 48 hours, read-out: Percent viability.
Source text: as §1, §2, §3, §4

In a further assay the test system is NCI-H322M. As to the kind of experiment: SRB growth assay, NCI-H322M. The following applies: Homo sapiens, NCI-H322M (Non-Small Cell Lung), 48 hours, read-out: Percent viability.
Source text: as §1, §2, §3, §4

Another assay relates to RPMI-8226. As to the kind of experiment: SRB growth assay, RPMI-8226. As to conditions: Homo sapiens, RPMI-8226 (Leukemia), 48 hours, read-out: Percent viability.
Source text: as §1, §2, §3, §4

The test system of another assay is LOX IMVI. As to the kind of experiment: SRB growth assay, LOX IMVI. As to conditions: Homo sapiens, LOX IMVI (Melanoma), 48 hours, read-out: Percent viability.
Source text: as §1, §2, §3, §4

In another assay the test system is UO-31. The experiment in a line: SRB growth assay, UO-31. As to conditions: Homo sapiens, UO-31 (Renal), 48 hours, read-out: Percent viability.
Source text: as §1, §2, §3, §4

For a further assay, the system named is M14. As to the kind of experiment: SRB growth assay, M14. The following applies: Homo sapiens, M14 (Melanoma), 48 hours, read-out: Percent viability.
Source text: as §1, §2, §3, §4

In another assay the test system is A549. As to the kind of experiment: SRB growth assay, A549. As to conditions: Homo sapiens, A549 (Non-Small Cell Lung), 48 hours, read-out: Percent viability.
Source text: as §1, §2, §3, §4

In a further assay the test system is HOP-62. As to the kind of experiment: SRB growth assay, HOP-62. The following applies: Homo sapiens, HOP-62 (Non-Small Cell Lung), 48 hours, read-out: Percent viability.
Source text: as §1, §2, §3, §4

Another assay relates to HS 578T. As to the kind of experiment: SRB growth assay, HS 578T. The following applies: Homo sapiens, HS 578T (Breast), 48 hours, read-out: Percent viability.
Source text: as §1, §2, §3, §4

Turning to `COc1cccc2c1C(=O)c1c(O)c3c(c(O)c1C2=O)C[C@@](O)(C(=O)CO)C[C@@H]3O[C@H]1C[C@H](N)[C@H](O)[C@H](C)O1` [Doxorubicin, reference compound], the viability (commonly a read-out of living cells in per cent, often relative to untreated cells) at 10 µM in the assay with NCI/ADR-RES is 78.8%; with SK-MEL-28 it was 29.7%; with UACC-62 it was 4.85%; in the assay with U251 it was 22%; in the assay on HCT-15 it was 31.1%; in the assay on SK-MEL-2, 11.6%. For the same compound, the viability at 10 µM amounted to 45.8% in the assay on MDA-MB-468; 15.8% in the assay with MALME-3M; 19% in the assay on SW-620; 11.1% in the assay with SR; 11.2% in the assay with SF-295; 16.8% in the assay with OVCAR-3. In addition, the viability at 10 µM turned out to be 57.1% with OVCAR-5; 71.8% in the assay with KM12; 36% in the assay with SNB-75; 42.6% with NCI-H322M; 44.2% in the assay with RPMI-8226; 24.4% with LOX IMVI. The viability at 10 µM in the assay with UO-31 was found to be 28.2%; in the assay on M14, 25.5%; in the assay with A549 it was 86.8%; in the assay on HOP-62, 19.7%; with HS 578T, 51.5%.
Regarding `FC(F)(F)c1cn(CC2CCNCC2)c2ncnc(Cl)c12` [NUCC-0000381], the viability at 10 µM came to 93.3% in the assay with NCI/ADR-RES; 93.3% in the assay with SK-MEL-28; 46.3% with UACC-62; 15.1% in the assay with U251; 40.4% in the assay on HCT-15; 106% in the assay with SK-MEL-2. Also, the viability at 10 µM turned out to be 102% with MDA-MB-468; 101% in the assay with MALME-3M; 27.2% in the assay with SW-620; 16.7% in the assay with SR; 44.4% in the assay with SF-295; 48.7% in the assay on OVCAR-3. Besides, the viability at 10 µM turned out to be 76.8% in the assay on OVCAR-5; 31% in the assay with KM12; 83.3% in the assay with SNB-75; 68.1% in the assay with NCI-H322M; 100% with RPMI-8226; 26% with LOX IMVI. For the same compound, the viability at 10 µM with UO-31 stood at 19.7%; with M14, 96.2%; with A549 it was 28.2%; with HOP-62, 15.7%; in the assay with HS 578T, 53.9%.
For the compound `CS(=O)(=O)N1CCC(Cn2cc(C(F)(F)F)c3c(Cl)ncnc32)CC1` [NUCC-0000383], the viability at 10 µM stood at 99% with NCI/ADR-RES; 4.54% with SK-MEL-28; 8.26% in the assay on UACC-62; 2.47% with U251; 38.8% in the assay with HCT-15; 14.7% with SK-MEL-2. In addition, the viability at 10 µM was determined as 93.8% with MDA-MB-468; 42.7% in the assay with MALME-3M; 25.7% in the assay with SW-620; 37% in the assay with SR; 56.2% in the assay with SF-295; 95.5% in the assay on OVCAR-3. The viability at 10 µM in the assay on OVCAR-5 stood at 104%; in the assay on KM12 it was 99.5%; in the assay with SNB-75 it was 23.3%; in the assay on NCI-H322M, 53.8%; with RPMI-8226, 100%; in the assay on LOX IMVI, 35.8%. Moreover, the viability at 10 µM is 3.37% in the assay on UO-31; 78.5% with M14; 100% with A549; 88.5% with HOP-62; 50.1% in the assay with HS 578T.
